13 molecules from patent US20030073699A1, “Compounds and methods to treat cardiac failure and other disorders” (priority 1998, published 2003) can be followed below.

Holding throughout (assay type): biochemical
For one assay, the target named is p38α (Homo sapiens, UniProt Q16539). In words: p38 kinase inhibition assay, activity for p38α. The settings on record: for IC50: inhibition of p38α, based on IC50 curves; for Fold increase Piperidinyl/Piperazinyl: p38α potency of piperidinyl versus corresponding piperazinyl compound.
Chain of p38α (Q16539 whole entry): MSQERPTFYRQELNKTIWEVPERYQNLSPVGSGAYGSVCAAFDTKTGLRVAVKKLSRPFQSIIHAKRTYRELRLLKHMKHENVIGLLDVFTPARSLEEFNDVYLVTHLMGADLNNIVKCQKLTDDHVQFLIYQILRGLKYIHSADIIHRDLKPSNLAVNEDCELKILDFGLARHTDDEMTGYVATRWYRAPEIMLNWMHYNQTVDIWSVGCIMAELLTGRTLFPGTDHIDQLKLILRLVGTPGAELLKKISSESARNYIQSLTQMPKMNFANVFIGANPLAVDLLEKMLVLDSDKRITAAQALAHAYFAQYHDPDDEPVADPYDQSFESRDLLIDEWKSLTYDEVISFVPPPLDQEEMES
The next assay has as its target p38 kinase (Homo sapiens, UniProt Q16539). In words: Assay for p38 kinase inhibition (Example 19). The settings on record: tested as described in Example 19. Here is the method:
(§1) The compounds to be tested were solubilized in DMSO and diluted into water to the desired concentrations. The p38 kinase was diluted to 10 μg/ml into a buffer containing 20 mM MOPS, pH 7.0,25 mM beta-glycerol phosphate, 2 mg/ml gelatin; 0.5 mM EGTA, and 4 mM DTT.
(§2) The reaction was carried out by mixing 20 μl test compound with 10 μl of a substrate cocktail containing 500 μg/ml peptide substrate and 0.2 mM ATP (+200 μCi/ml gamma-32P-ATP) in a 4× assay buffer. The reaction was initiated by the addition of 10 μl of p38 kinase. […] After a 40 minute incubation at room temperature, the reaction was stopped by the addition of 10 μl per reaction of 0.25 M phosphoric acid.
A portion of the reaction was spotted onto a disk of P81 phosphocellulose paper, the filters were dried for 2 minutes and then washed 4× in 75 mM H3PO4. The filters were rinsed briefly in 95% ethanol, dried, then placed in scintillation vials with liquid scintillation cocktail. […]
Counts incorporated are determined on a scintillation counter. Relative enzyme activity is calculated by subtracting background counts (counts measured in the absence of enzyme) from each result, and comparing the resulting counts to those obtained in the absence of inhibitor. IC50 values were determined with curve-fitting plots available with common software packages. Approximate IC50 values were calculated using formula […]

A further assay addresses p38β (Homo sapiens, UniProt Q15759). In words: p38 kinase inhibition assay, specificity versus p38β. As to conditions: for IC50: read-out: P38-β IC50; for IC50 ratio β/α: specificity for p38α as compared to p38β. The protocol:
as §1, §2
A portion of the reaction was spotted onto a disk of P81 phosphocellulose paper, the filters were dried for 2 minutes and then washed 4× in 75 mM H3PO4. The filters were rinsed briefly in 95% ethanol, dried, then placed in scintillation vials with liquid scintillation cocktail.
Alternatively, the substrate is previously biotinylated and the resulting reactions are spotted on SAM^2™ streptavidin filter squares (Promega). The filters are washed 4× in 2M NaCl, 4× in 2M NaCl with 1% phosphoric acid, 2× in water, and briefly in 95% ethanol. The filter squares are dried and placed in scintillation vials with liquid scintillation cocktail.
Counts incorporated are determined on a scintillation counter. Relative enzyme activity is calculated by subtracting background counts (counts measured in the absence of enzyme) from each result, and comparing the resulting counts to those obtained in the absence of inhibitor. IC50 values were determined with curve-fitting plots available with common software packages. Approximate IC50 values were calculated using formula
where A=fractional activity and i=total inhibitor concentration.
The compounds of the invention as well as those containing piperazine, generally, are specific for p38α as compared to p38β. […] It is seen that the specificity for α as opposed to β is generally of the order of ten-fold.

Chain of p38β (Q15759 whole entry): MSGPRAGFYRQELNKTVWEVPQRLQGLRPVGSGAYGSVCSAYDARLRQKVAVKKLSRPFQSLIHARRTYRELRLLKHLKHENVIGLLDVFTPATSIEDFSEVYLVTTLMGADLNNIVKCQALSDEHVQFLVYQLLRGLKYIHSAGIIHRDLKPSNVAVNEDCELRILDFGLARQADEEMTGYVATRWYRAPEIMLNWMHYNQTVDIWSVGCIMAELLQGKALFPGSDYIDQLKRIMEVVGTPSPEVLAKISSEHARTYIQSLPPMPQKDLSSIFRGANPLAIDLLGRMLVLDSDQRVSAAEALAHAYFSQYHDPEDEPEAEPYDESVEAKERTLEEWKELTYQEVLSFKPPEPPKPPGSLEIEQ
Chain of p38 kinase (Q16539 whole entry): as the sequence (Q16539 whole entry) above

With “4-(4-benzyl piperazinyl)-indole-2-carboxamide [Piperazinyl 2]”, the IC50 (commonly the concentration at which inhibition is half-maximal) against p38α is > 30 µM.
Molecule `CC1CC(Cc2ccccc2)CCN1C(=O)c1ccc2[nH]ccc2c1` (stereo not shown) [Example 18] came in with an IC50 against p38 kinase of 0.28 µM.
In the case of `O=C(c1c[nH]c2ccccc12)N1CCN(Cc2ccccc2)CC1` [Piperazinyl 3, reference compound], the IC50 against p38α was found to be 4.74 µM. In addition, at p38β, the IC50 came to 34 µM and the “IC50 ratio β/α” value came out at 7.17.
The like results for `O=C(c1cccc2[nH]ccc12)N1CCN(Cc2ccccc2)CC1` [Piperazinyl 4, reference compound] were, in that order, 1.54 µM, 24 µM and 15.6.
For the molecule `O=C(c1ccc2[nH]ccc2c1)N1CCN(Cc2ccccc2)CC1` [Piperazinyl 5], on p38β, the IC50 was 25.8 µM and the “IC50 ratio β/α” value is on record as 15.1.
As for `O=C(c1ccc2cc[nH]c2c1)N1CCN(Cc2ccccc2)CC1` [Piperazinyl 6], the IC50 amounted to 5.52 µM against p38α and 39.1 µM at p38β. Further, the “IC50 ratio β/α” value at p38β was determined as 7.08.
As for `O=C(c1cccc2cc[nH]c12)N1CCN(Cc2ccccc2)CC1` [Piperazinyl 7], at p38α, the IC50 was > 30 µM.
For the molecule `O=C(c1cc2ccccc2[nH]1)N1CCC(Cc2ccccc2)CC1` [Piperidinyl 2], the IC50 on p38α was determined as 2.66 µM.
In the case of `O=C(c1c[nH]c2ccccc12)N1CCC(Cc2ccccc2)CC1` [Piperidinyl 3], at p38α, the IC50 came out at 0.163 µM and the “Fold increase Piperidinyl/Piperazinyl” value amounted to 29.1. Further, on p38β, the IC50 stood at 1.77 µM and the “IC50 ratio β/α” value stood at 10.9.
Consider `O=C(c1cccc2[nH]ccc12)N1CCC(Cc2ccccc2)CC1` [Piperidinyl 4, 4-benzylpiperidinyl-indoie-4-carboxamide], for which, at p38α, the 50% inhibitory concentration (IC50) turned out to be 0.159 µM and the “Fold increase Piperidinyl/Piperazinyl” value turned out to be 9.7. Besides, at p38β, the IC50 is 2.43 µM and the “IC50 ratio β/α” value was 15.3.
Turning to `O=C(c1ccc2[nH]ccc2c1)N1CCC(Cc2ccccc2)CC1` [Piperidinyl 5, 4-benzylpiperidinyl-indole-5-carboxamide], the values for the IC50 against p38α and at p38β were 0.15 µM and 3.02 µM, respectively.
As for `O=C(c1ccc2cc[nH]c2c1)N1CCC(Cc2ccccc2)CC1` [Piperidinyl 6, 4-benzylpiperidinyl-indole-6-carboxamide], the IC50 at p38β amounted to 3.83 µM.
With `O=C(c1cccc2cc[nH]c12)N1CCC(Cc2ccccc2)CC1` [Piperidinyl 7], at p38α, half-maximal inhibition (IC50) was put at 7.04 µM and the “Fold increase Piperidinyl/Piperazinyl” value is >4.3.
